Reference: ChEMBL document CHEMBL3046050, “Synthesis of bioactive spiro-2-[3-(2-phenyl)-3H-indolyl]-1-aryl-3-phenylaziridines and SAR studies on their antimicrobial behavior” (Med Chem Res, 2009)

Test system: Escherichia coli
Assay: Antimicrobial activity against Escherichia coli at 20 ug/ml after 24 hr by disk diffusion method
Format: functional
Settings: read-out: IZ

SMILES	zone of inhibition at 20 µg/mL [mm]
Cc1cccc(N2C(c3ccccc3)C23C(c2ccccc2)=Nc2ccccc23)c1 (configuration not stated)	13.5
CC1(C)S[C@@H]2[C@H](NC(=O)[C@H](N)c3ccccc3)C(=O)N2[C@H]1C(=O)O [AMPICILLIN]	10.5
Oc1cccc(N2C(c3ccccc3)C23C(c2ccccc2)=Nc2ccccc23)c1 (configuration not stated)	10.5
Clc1ccccc1N1C(c2ccccc2)C12C(c1ccccc1)=Nc1ccccc12 (configuration not stated)	17
Oc1ccccc1N1C(c2ccccc2)C12C(c1ccccc1)=Nc1ccccc12 (configuration not stated)	11.3
COc1cccc(N2C(c3ccccc3)C23C(c2ccccc2)=Nc2ccccc23)c1 (configuration not stated)	20.8
O=[N+]([O-])c1ccc(N2C(c3ccccc3)C23C(c2ccccc2)=Nc2ccccc23)cc1 (configuration not stated)	8.8
Oc1ccc(N2C(c3ccccc3)C23C(c2ccccc2)=Nc2ccccc23)cc1 (configuration not stated)	6

Test system: Bacillus subtilis
Assay: Antimicrobial activity against Bacillus subtilis at 20 ug/ml after 24 hr by disk diffusion method
Format: functional
Settings: read-out: IZ

SMILES	zone of inhibition at 20 µg/mL [mm]
Cc1cccc(N2C(c3ccccc3)C23C(c2ccccc2)=Nc2ccccc23)c1 (configuration not stated)	14.5
CC1(C)S[C@@H]2[C@H](NC(=O)[C@H](N)c3ccccc3)C(=O)N2[C@H]1C(=O)O [AMPICILLIN]	9.3
Oc1cccc(N2C(c3ccccc3)C23C(c2ccccc2)=Nc2ccccc23)c1 (configuration not stated)	11.5
Clc1ccccc1N1C(c2ccccc2)C12C(c1ccccc1)=Nc1ccccc12 (configuration not stated)	16.3
Oc1ccccc1N1C(c2ccccc2)C12C(c1ccccc1)=Nc1ccccc12 (configuration not stated)	12.7
COc1cccc(N2C(c3ccccc3)C23C(c2ccccc2)=Nc2ccccc23)c1 (configuration not stated)	21.5
O=[N+]([O-])c1ccc(N2C(c3ccccc3)C23C(c2ccccc2)=Nc2ccccc23)cc1 (configuration not stated)	8.3
Oc1ccc(N2C(c3ccccc3)C23C(c2ccccc2)=Nc2ccccc23)cc1 (configuration not stated)	5.5

Test system: Escherichia coli
Assay: Antimicrobial activity against Escherichia coli at 20 ug/ml after 24 hr by disk diffusion method relative to ampicillin
Format: functional
Settings: not given

SMILES	Ratio
Cc1cccc(N2C(c3ccccc3)C23C(c2ccccc2)=Nc2ccccc23)c1 (configuration not stated)	128.6
Oc1cccc(N2C(c3ccccc3)C23C(c2ccccc2)=Nc2ccccc23)c1 (configuration not stated)	100
Clc1ccccc1N1C(c2ccccc2)C12C(c1ccccc1)=Nc1ccccc12 (configuration not stated)	161.9
Oc1ccccc1N1C(c2ccccc2)C12C(c1ccccc1)=Nc1ccccc12 (configuration not stated)	107.9
COc1cccc(N2C(c3ccccc3)C23C(c2ccccc2)=Nc2ccccc23)c1 (configuration not stated)	198.4
O=[N+]([O-])c1ccc(N2C(c3ccccc3)C23C(c2ccccc2)=Nc2ccccc23)cc1 (configuration not stated)	84.1
Oc1ccc(N2C(c3ccccc3)C23C(c2ccccc2)=Nc2ccccc23)cc1 (configuration not stated)	57.1

Test system: Priestia megaterium
Assay: Antimicrobial activity against Bacillus megaterium at 20 ug/ml after 24 hr by disk diffusion method relative to ampicillin
Format: functional
Settings: not given

SMILES	Ratio
Cc1cccc(N2C(c3ccccc3)C23C(c2ccccc2)=Nc2ccccc23)c1 (configuration not stated)	114.4
Oc1cccc(N2C(c3ccccc3)C23C(c2ccccc2)=Nc2ccccc23)c1 (configuration not stated)	89
Clc1ccccc1N1C(c2ccccc2)C12C(c1ccccc1)=Nc1ccccc12 (configuration not stated)	131.4
Oc1ccccc1N1C(c2ccccc2)C12C(c1ccccc1)=Nc1ccccc12 (configuration not stated)	107.3
COc1cccc(N2C(c3ccccc3)C23C(c2ccccc2)=Nc2ccccc23)c1 (configuration not stated)	149.7
O=[N+]([O-])c1ccc(N2C(c3ccccc3)C23C(c2ccccc2)=Nc2ccccc23)cc1 (configuration not stated)	73.4
Oc1ccc(N2C(c3ccccc3)C23C(c2ccccc2)=Nc2ccccc23)cc1 (configuration not stated)	46.6

Test system: Brevundimonas diminuta
Assay: Antimicrobial activity against Brevundimonas diminuta at 20 ug/ml after 24 hr by disk diffusion method relative to ampicillin
Format: functional
Settings: not given

SMILES	Ratio
Cc1cccc(N2C(c3ccccc3)C23C(c2ccccc2)=Nc2ccccc23)c1 (configuration not stated)	192.6
Oc1cccc(N2C(c3ccccc3)C23C(c2ccccc2)=Nc2ccccc23)c1 (configuration not stated)	174.1
Clc1ccccc1N1C(c2ccccc2)C12C(c1ccccc1)=Nc1ccccc12 (configuration not stated)	222.2
Oc1ccccc1N1C(c2ccccc2)C12C(c1ccccc1)=Nc1ccccc12 (configuration not stated)	188.9
COc1cccc(N2C(c3ccccc3)C23C(c2ccccc2)=Nc2ccccc23)c1 (configuration not stated)	253.7
O=[N+]([O-])c1ccc(N2C(c3ccccc3)C23C(c2ccccc2)=Nc2ccccc23)cc1 (configuration not stated)	127.8
Oc1ccc(N2C(c3ccccc3)C23C(c2ccccc2)=Nc2ccccc23)cc1 (configuration not stated)	85.2

Test system: Priestia megaterium
Assay: Antimicrobial activity against Bacillus megaterium at 20 ug/ml after 24 hr by disk diffusion method
Format: functional
Settings: read-out: IZ

SMILES	zone of inhibition at 20 µg/mL [mm]
Cc1cccc(N2C(c3ccccc3)C23C(c2ccccc2)=Nc2ccccc23)c1 (configuration not stated)	13.5
CC1(C)S[C@@H]2[C@H](NC(=O)[C@H](N)c3ccccc3)C(=O)N2[C@H]1C(=O)O [AMPICILLIN]	11.8
Oc1cccc(N2C(c3ccccc3)C23C(c2ccccc2)=Nc2ccccc23)c1 (configuration not stated)	10.5
Clc1ccccc1N1C(c2ccccc2)C12C(c1ccccc1)=Nc1ccccc12 (configuration not stated)	15.5
Oc1ccccc1N1C(c2ccccc2)C12C(c1ccccc1)=Nc1ccccc12 (configuration not stated)	12.7
COc1cccc(N2C(c3ccccc3)C23C(c2ccccc2)=Nc2ccccc23)c1 (configuration not stated)	17.7
O=[N+]([O-])c1ccc(N2C(c3ccccc3)C23C(c2ccccc2)=Nc2ccccc23)cc1 (configuration not stated)	8.7
Oc1ccc(N2C(c3ccccc3)C23C(c2ccccc2)=Nc2ccccc23)cc1 (configuration not stated)	5.5

Test system: Brevundimonas diminuta
Assay: Antimicrobial activity against Brevundimonas diminuta at 20 ug/ml after 24 hr by disk diffusion method
Format: functional
Settings: read-out: IZ

SMILES	zone of inhibition at 20 µg/mL [mm]
Cc1cccc(N2C(c3ccccc3)C23C(c2ccccc2)=Nc2ccccc23)c1 (configuration not stated)	17.3
CC1(C)S[C@@H]2[C@H](NC(=O)[C@H](N)c3ccccc3)C(=O)N2[C@H]1C(=O)O [AMPICILLIN]	9
Oc1cccc(N2C(c3ccccc3)C23C(c2ccccc2)=Nc2ccccc23)c1 (configuration not stated)	15.7
Clc1ccccc1N1C(c2ccccc2)C12C(c1ccccc1)=Nc1ccccc12 (configuration not stated)	20
Oc1ccccc1N1C(c2ccccc2)C12C(c1ccccc1)=Nc1ccccc12 (configuration not stated)	17
COc1cccc(N2C(c3ccccc3)C23C(c2ccccc2)=Nc2ccccc23)c1 (configuration not stated)	22.8
O=[N+]([O-])c1ccc(N2C(c3ccccc3)C23C(c2ccccc2)=Nc2ccccc23)cc1 (configuration not stated)	11.5
Oc1ccc(N2C(c3ccccc3)C23C(c2ccccc2)=Nc2ccccc23)cc1 (configuration not stated)	7.7

Test system: not listed separately
Assay: Acute toxicity in Rattus norvegicus (rat)
Format: organism-based
Settings: in vivo

SMILES	LD50 [mg/kg]
Cc1cccc(N2C(c3ccccc3)C23C(c2ccccc2)=Nc2ccccc23)c1 (configuration not stated)	3840
Oc1cccc(N2C(c3ccccc3)C23C(c2ccccc2)=Nc2ccccc23)c1 (configuration not stated)	5080
Clc1ccccc1N1C(c2ccccc2)C12C(c1ccccc1)=Nc1ccccc12 (configuration not stated)	4040
Oc1ccccc1N1C(c2ccccc2)C12C(c1ccccc1)=Nc1ccccc12 (configuration not stated)	4360
COc1cccc(N2C(c3ccccc3)C23C(c2ccccc2)=Nc2ccccc23)c1 (configuration not stated)	5120
O=[N+]([O-])c1ccc(N2C(c3ccccc3)C23C(c2ccccc2)=Nc2ccccc23)cc1 (configuration not stated)	5380
Oc1ccc(N2C(c3ccccc3)C23C(c2ccccc2)=Nc2ccccc23)cc1 (configuration not stated)	4480

Test system: Bacillus subtilis
Assay: Antimicrobial activity against Bacillus subtilis at 20 ug/ml after 24 hr by disk diffusion method relative to ampicillin
Format: functional
Settings: not given

SMILES	Ratio
Cc1cccc(N2C(c3ccccc3)C23C(c2ccccc2)=Nc2ccccc23)c1 (configuration not stated)	155.9
Oc1cccc(N2C(c3ccccc3)C23C(c2ccccc2)=Nc2ccccc23)c1 (configuration not stated)	123.7
Clc1ccccc1N1C(c2ccccc2)C12C(c1ccccc1)=Nc1ccccc12 (configuration not stated)	175.6
Oc1ccccc1N1C(c2ccccc2)C12C(c1ccccc1)=Nc1ccccc12 (configuration not stated)	136.2
COc1cccc(N2C(c3ccccc3)C23C(c2ccccc2)=Nc2ccccc23)c1 (configuration not stated)	231.2
O=[N+]([O-])c1ccc(N2C(c3ccccc3)C23C(c2ccccc2)=Nc2ccccc23)cc1 (configuration not stated)	89.6
Oc1ccc(N2C(c3ccccc3)C23C(c2ccccc2)=Nc2ccccc23)cc1 (configuration not stated)	59.1
